Key:
[1] = system: Proteobacteria (Enterobacteriaceae); test: Fecal shotgun metagenomics of hospitalized liver disease patients stratified by lactulose exposure: Enterobacteriaceae/Proteobacteria abundance; format: in vivo, human; conditions: fecal samples from lactulose-treated patients
B. longum = B. longum growth, pH and SCFA in BHIS with 50 mM lactulose or sucrose; format: cell-based, Bifidobacterium longum
Excerpt: FIGS. 4A-4D: Lactulose-mediated Bifidobacteria expansion is associated with exclusion of antibiotic-resistant Enterococcus species. (A) Relative abundance of potentially pathogenic taxa Enterococcus and Proteobacteria were plotted based on lactulose exposure (no lactulose, left; lactulose, right) and relative abundance of Bifidobacteria (<10%, blue; ≥10%, red). Each point represents a single sample with the following sample sizes: total n=262; no lactulose, <10%, n=79; no lactulose, ≥10%, n=24; lactulose, <10%, n=87; lactulose, ≥10%, n=72. Median and interquartile range are indicated by the horizontal line and box, respectively. The lower vertical line depicts Q1-1.5*IQR and the upper vertical line depicts Q3+1.5*IQR. Statistical comparisons between individual groups were analyzed using a two-tailed Wilcoxon rank sum test. P-values are adjusted for multiple comparisons using the Benjamini-Hochberg procedure and represented as follows: *, p<0.05; **, p<0.01; ***, p<0.001; ****, p<0.0001. (B) A human-derived B. longum species was grown in BHIS media (blue) or BHIS supplemented with 50 mM lactulose (red) or 50 mM sucrose (green), and growth curves (OD600 over time) are shown. […] This graph is representative of three independent experiments, also done in triplicate, all with consistent results. (C) Schematic of experimental design for B. longum (purple bacilli) and VRE (green cocci) co-culture. B. longum and VRE were grown to steady state and diluted to low density (OD600=0.05) prior to inoculation in either BHIS or BHIS supplemented with 50 mM lactulose. Cultures were inoculated with both bacteria simultaneously (top) or B. longum was given either a 24-hour or 48-hour lead time prior to VRE inoculation (bottom). (D) After 24-hours of co-culture, serial dilutions of three replicates were plated for VRE c.f.u. counts. Each replicate is plotted as an individual point, and the median is represented by the horizontal line. […]
(C and D) Supernatant BA quantified after 24 h of B. longum growth in media containing 10 μg/ml conjugated primary BA ((C) TCA or (D) GCA). n=4 all conditions. […]

OC[C@H]1O[C@@H](O[C@@H]2[C@@H](CO)OC(O)(CO)[C@H]2O)[C@H](O)[C@@H](O)[C@H]1O (mixture of isomers) [Lactulose, lactulose]
Enterobacteriaceae abundance, mean [1]: 7.9% | Enterobacteriaceae abundance, median [1]: 0.9% | Enterobacteriaceae abundance, range [1]: 0.0-98.8% | Acetate in B. longum culture (B. longum; 50 mM lactulose, 24 h): acetate production | Media pH after B. longum growth (B. longum; 50 mM lactulose, 24 h): media acidification | B. longum culture growth (OD600) (B. longum; BHIS supplemented with 50 mM sugar): augmented

Source: patent US20250186470A1, “Compositions and Methods Using Lactulose for Treating Disease” (THE UNIVERSITY OF CHICAGO, priority 2023, published 2025)
